Among the data in patent US9200008B2 (ASKA PHARMACEUTICAL CO., LTD., priority 2010, dated 2015) are minimal effective concentration values, retold here.

The subject of the assay is Human prostate cancer cell lines (PC-3 cells). The experiment in a line: Measurement of cell death-inducing activity (Test Example 1). The assay is classed as cell-based. Conditions: PC-3, 48 h, 48 hours after addition, tested at 10, 1, 0.1, 0.025 and 0.00625 μmol/L, qualitative evaluation of 10 fields, read-out: Concentration showing the cell death-inducing activity (cell death-inducing rate not less than 40%). The method, boiled down: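 Compound treatment lasted 48 h at 10 to 0.00625 μmol/L (five levels, DMSO as control) on PC-3 cells pre-cultured 48 h at 37 °C, 5% CO2 after seeding at 1×10^5 cells/well. A cell death-inducing rate of 40% or more counted as active.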
Consider `CCc1nc(-c2ccc(F)cc2C)sc1NC(=O)OCc1ccc2c(c1)ncn2CC` [Example 9-167], for which the minimal effective concentration amounted to 0.025 µM. On to `CCc1nc(-c2ccccc2OC)sc1NC(=O)OCc1ccc2c(c1)nc1n2CCOC1` [Example 9-168], for which the minimal effective concentration worked out at 0.1 µM. Take `CCc1nc(-c2ccc(Cl)cc2OC)sc1NC(=O)OCc1ccc2c(c1)nc1n2CCOC1` [Example 9-169]: the minimal effective concentration was 0.00625 µM.

On to `CCc1nc(-c2ccc(Cl)cc2OC)sc1NC(=O)OCc1ccc2c(c1)nc1n2CCC1` [Example 9-170], for which the minimal effective concentration was determined as 0.025 µM. Take `CCc1nc(-c2ccc(C)cc2OC)sc1NC(=O)OCc1ccc2c(c1)nc1n2CCC1` [Example 9-171]: the minimal effective concentration was found to be 0.025 µM. Consider `CCc1nc(-c2ccc(Cl)cc2OC)sc1NC(=O)OCc1ccc2c(c1)nc1n2CCCC1` [Example 9-172], for which the minimal effective concentration amounted to 0.025 µM. In the case of `CCc1nc(-c2ccc(Cl)cc2OC)sc1NC(=O)OCc1ccc2c(cnn2CC)c1` [Example 9-173], the minimal effective concentration stood at 0.025 µM. As to `CCc1nc(-c2ccc(C)cc2OC)sc1NC(=O)OCc1ccc2c(cnn2CC)c1` [Example 9-174], the minimal effective concentration turned out to be 0.025 µM. In the case of `CCc1nc(-c2ccc(C)cc2C)sc1NC(=O)OCc1ccc2c(cnn2CC)c1` [Example 9-175], the minimal effective concentration was found to be 0.1 µM.

As for `CCc1nc(-c2ccc(Cl)cc2OC)sc1NC(=O)OCc1ccc2nn(CC)cc2c1` [Example 9-176], the minimal effective concentration came to 0.025 µM. With `CCn1cnc2cc(COC(=O)Nc3cnc(-c4ccc(Cl)cc4OC)s3)ccc21` [Example 9-177], the minimal effective concentration stood at 0.1 µM. For the molecule `COc1ccccc1-c1ncc(NC(=O)OCc2ccc3c(c2)ncn3C)s1` [Example 9-178], the minimal effective concentration turned out to be 10 µM. In the case of `CCn1ncc2cc(COC(=O)Nc3cnc(-c4ccccc4OC)s3)ccc21` [Example 9-179], the minimal effective concentration is 10 µM. For `CCc1nc(-c2ccc(Cl)cc2OC)sc1NC(=O)OCc1ccc2c(c1)ncn2C` [Example 9-181], the minimal effective concentration came out at 0.00625 µM.

`CCc1nc(-c2ccc(C)cc2C)sc1NC(=O)OCc1ccc2c(c1)ncn2C` [Example 9-182]: the minimal effective concentration was 0.025 µM. With `CCCc1nc(-c2ccc(Cl)cc2OC)sc1NC(=O)OCc1ccc2c(c1)ncn2C` [Example 9-183], the minimal effective concentration stood at 1 µM. For the molecule `CCCc1nc(-c2ccc(C)cc2C)sc1NC(=O)OCc1ccc2c(c1)ncn2C` [Example 9-184], the minimal effective concentration turned out to be 1 µM. Regarding `Cc1ccc(-c2nc(C3CC3)c(NC(=O)OCc3ccc4c(c3)ncn4C)s2)c(C)c1` [Example 9-185], the minimal effective concentration is 0.1 µM. With `Cc1cc(Cl)ccc1-c1nc(C(F)(F)F)c(NC(=O)OCc2ccc3c(c2)ncn3C)s1` [Example 9-186] the figure was 1 µM. In the case of `Cc1nc(-c2cccs2)sc1NC(=O)OCc1ccc2c(c1)ncn2C` [Example 9-191], the minimal effective concentration stood at 10 µM. `Cc1nc(-c2sccc2Cl)sc1NC(=O)OCc1ccc2c(c1)ncn2C` [Example 9-192]: the minimal effective concentration stood at 1 µM. Take `Cc1nc(-c2ccc(Cl)s2)sc1NC(=O)OCc1ccc2c(c1)ncn2C` [Example 9-193]: the minimal effective concentration was 1 µM.

Consider `Cc1cccnc1-c1nc(C)c(NC(=O)OCc2ccc3c(c2)ncn3C)s1` [Example 9-195], for which the minimal effective concentration was 10 µM. As for `CCn1cnc2cc(COC(=O)Nc3sc(-c4ncccc4C)nc3C)ccc21` [Example 9-196], the minimal effective concentration is 10 µM. With `COc1cc(Cl)ccc1-c1nc(C)c(NC(=O)OCc2ccc3nc(C)c(C)nc3c2)s1` [Example 9-200], the minimal effective concentration was 1 µM. With `Cn1nc(-c2ccccc2)cc1NC(=O)OCc1ccc2c(c1)ncn2C` [Example 9-204] the figure was 10 µM. The result for `Cc1ccccc1-c1cc(NC(=O)OCc2ccc3c(c2)ncn3C)n(C)n1` [Example 9-205] reads 1 µM; that for `Cn1nc(-c2ccc(Cl)cc2Cl)cc1NC(=O)OCc1ccc2c(c1)ncn2C` [Example 9-207], 0.025 µM. In the case of `CCn1nc(-c2ccc(Cl)cc2Cl)cc1NC(=O)OCc1ccc2c(c1)ncn2C` [Example 9-208], the minimal effective concentration came to 0.025 µM. With `CCn1cnc2cc(COC(=O)Nc3cc(-c4ccc(Cl)cc4Cl)nn3C)ccc21` [Example 9-209] the figure was 0.025 µM; with `CCn1nc(-c2ccc(Cl)cc2Cl)cc1NC(=O)OCc1ccc2c(c1)ncn2CC` [Example 9-210], 0.1 µM. Turning to `CCn1nc(-c2ccc(Cl)c(Cl)c2)cc1NC(=O)OCc1ccc2c(c1)ncn2C` [Example 9-211], the minimal effective concentration was determined as 10 µM. With `CCn1cnc2cc(COC(=O)Nc3cc(-c4ccccc4C(F)(F)F)nn3C)ccc21` [Example 9-212], the minimal effective concentration came out at 10 µM. With `COc1ccccc1-c1cc(NC(=O)OCc2ccc3c(c2)ncn3C)n(C)n1` [Example 9-213], the minimal effective concentration is 0.025 µM.

For the molecule `CCn1nc(-c2ccccc2OC)cc1NC(=O)OCc1ccc2c(c1)ncn2C` [Example 9-214], the minimal effective concentration is 0.1 µM.

In the case of `CCn1cnc2cc(COC(=O)Nc3cc(-c4ccccc4OC)nn3C)ccc21` [Example 9-215], the minimal effective concentration came to 0.1 µM.

Turning to `CCn1nc(-c2ccccc2OC)cc1NC(=O)OCc1ccc2c(c1)ncn2CC` [Example 9-216], the minimal effective concentration worked out at 1 µM. The result for `COc1cc(F)ccc1-c1cc(NC(=O)OCc2ccc3c(c2)ncn3C)n(C)n1` [Example 9-217] reads 0.025 µM.

`CCn1nc(-c2ccc(F)cc2OC)cc1NC(=O)OCc1ccc2c(c1)ncn2C` [Example 9-218]: the minimal effective concentration came out at 0.025 µM. With `CCn1cnc2cc(COC(=O)Nc3cc(-c4ccc(F)cc4OC)nn3C)ccc21` [Example 9-219] the figure was 0.025 µM.

As to `CCn1nc(-c2ccc(F)cc2OC)cc1NC(=O)OCc1ccc2c(c1)ncn2CC` [Example 9-220], the minimal effective concentration was 0.1 µM. On to `COc1cc(Cl)ccc1-c1cc(NC(=O)OCc2ccc3c(c2)ncn3C)n(C)n1` [Example 9-221], for which the minimal effective concentration was 0.00625 µM.

For the molecule `CCn1nc(-c2ccc(Cl)cc2OC)cc1NC(=O)OCc1ccc2c(c1)ncn2C` [Example 9-222], the minimal effective concentration worked out at 0.00625 µM.

Consider `CCn1cnc2cc(COC(=O)Nc3cc(-c4ccc(Cl)cc4OC)nn3C)ccc21` [Example 9-223], for which the minimal effective concentration was determined as 0.00625 µM. Consider `CCn1nc(-c2ccc(Cl)cc2OC)cc1NC(=O)OCc1ccc2c(c1)ncn2CC` [Example 9-224], for which the minimal effective concentration worked out at 0.00625 µM. In the case of `COc1cc(C)ccc1-c1cc(NC(=O)OCc2ccc3c(c2)ncn3C)n(C)n1` [Example 9-226], the minimal effective concentration is 0.00625 µM. As for `CCn1nc(-c2ccc(C)cc2OC)cc1NC(=O)OCc1ccc2c(c1)ncn2C` [Example 9-227], the minimal effective concentration is 0.00625 µM. As to `CCn1cnc2cc(COC(=O)Nc3cc(-c4ccc(C)cc4OC)nn3C)ccc21` [Example 9-228], the minimal effective concentration was 0.00625 µM. `CCn1nc(-c2ccc(C)cc2OC)cc1NC(=O)OCc1ccc2c(c1)ncn2CC` [Example 9-229]: the minimal effective concentration came out at 0.025 µM. In the case of `COc1ccc(-c2cc(NC(=O)OCc3ccc4c(c3)ncn4C)n(C)n2)c(OC)c1` [Example 9-230], the minimal effective concentration was 0.025 µM.
